From patent US20190008879A1 (priority 2017, published 2019)

Tests used:
[1] = test system: mammary tumor cell line MCF-7; test: In vitro antitumor activity on MCF-7, noted by the inventor; format: cell-based, human; settings: MCF-7 strain
PI3K/Akt pathway = settings: cited from earlier work
[2] = test system: invasive ductal breast cancer; settings: 6 g/d in addition to chemotherapy, six months, 14 patients; cited from earlier work
periampullary cancer = test: Preventive consumption of phytin by the patient before the diagnosis; format: in vivo, human; settings: 1.4 g/day phytin solubilized in citric acid, oral, for 5 years before diagnosis
From the text: Before their admission to emergency department, the patient consumed, on a regular basis, with a view to prevention and for 5 years as an oral food supplement, 1.4 g/day of phytin solubilized in citric acid.

With `O[C@H]1[C@H](O)[C@@H](O)[C@H](O)[C@@H](O)[C@H]1O` [myo-inositol] the “in vitro antitumor action” value [1] was “no in vitro antitumor action”.

In the case of `O=P(O)(O)O[C@@H]1[C@@H](OP(=O)(O)O)[C@H](OP(=O)(O)O)[C@H](O)[C@H](OP(=O)(O)O)[C@H]1OP(=O)(O)O` [myo-inositol 1,3,4,5,6 pentakis phosphate], the “antitumor activity compared with phytin” value (PI3K/Akt pathway) is listed as “higher than that of phytin” and the anti-angiogenic action (PI3K/Akt pathway; concentration of 50 μM) is listed as “anti-angiogenic action by inhibiting the PI3K/Akt pathway”.

For phytin, the “cytopenia (leucocyte and platelet quantitative deficiency)” value [2] is given as “preserved from cytopenia”, the tumor progression [2] is given as “no impact on tumor progression” and the “antitumor activity in human in the absence of magnesium chloride” value (periampullary cancer) is given as “does not have antitumor activity in human”.
